Results on six molecules are retold here after patent publication US20100240768A1, “NOVEL NUTRACEUTICALCOMPOSITIONS CONTAINING THYMOL AND/OR P-CYMENE OR PLANT EXTRACTS FOR COGNITION” (priority 2007, published 2010).

Like-named read-outs stand apart in the source and are kept apart here.

Assay [1] concerns the target T1, human glycine transporter 1b (GlyT1) (Homo sapiens, UniProt P48067).
T1 construct: expressed in transfected cells
T1 sequence (P48067 1-652 isoform P48067-3): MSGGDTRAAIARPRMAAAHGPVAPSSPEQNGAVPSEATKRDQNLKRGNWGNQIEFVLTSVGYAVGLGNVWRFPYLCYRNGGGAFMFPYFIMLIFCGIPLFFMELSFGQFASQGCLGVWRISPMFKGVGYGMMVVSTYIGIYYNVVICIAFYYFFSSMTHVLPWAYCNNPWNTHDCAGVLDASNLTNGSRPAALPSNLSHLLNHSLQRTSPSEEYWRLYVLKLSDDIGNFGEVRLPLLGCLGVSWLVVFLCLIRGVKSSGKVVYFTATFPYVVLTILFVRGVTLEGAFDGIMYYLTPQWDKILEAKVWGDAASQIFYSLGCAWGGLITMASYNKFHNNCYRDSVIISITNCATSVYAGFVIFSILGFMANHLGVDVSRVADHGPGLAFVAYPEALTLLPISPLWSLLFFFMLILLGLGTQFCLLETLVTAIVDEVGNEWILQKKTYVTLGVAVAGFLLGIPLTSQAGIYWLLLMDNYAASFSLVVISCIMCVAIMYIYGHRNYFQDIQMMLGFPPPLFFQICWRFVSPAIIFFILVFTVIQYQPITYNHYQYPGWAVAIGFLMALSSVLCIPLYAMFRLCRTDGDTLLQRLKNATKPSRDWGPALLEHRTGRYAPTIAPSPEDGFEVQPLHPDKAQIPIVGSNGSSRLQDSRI
As to the kind of experiment: Inhibition of glycine transporter 1 in a cellular assay ([3H]glycine uptake into CHO cells). In kind it is cell-based. Particulars: for IC50 for tritiated glycine uptake: CHO cells expressing human GlyT1b, pure compounds, mean±s.e.m.; for IC50: dose-response curve, internalization of radioactive glycine into the cells, read-out: IC50 (FIG. 1, GlyT1 inhibition assay). The method, then:
Cells were harvested by trypsinisation one day prior to the assay and were seeded in the above mentioned medium. […] Glycine uptake into the cells was determined by addition of 60 nM radio-labelled [^3H] glycine (Amersham Biosciences GE Healthcare, Slough, UK) and incubation for 30 minutes at room temperature. Following removal of unincorporated label by gentle washing three times with the above buffer, incorporated glycine was quantified by liquid scintillation counting. […] Louis, USA) were used as known inhibitors of GlyT1.

Another assay concerns pCREB. As to the kind of experiment: Hippocampal slice cultures, synaptic marker pCREB (immunohistochemistry). In kind it is cell-based, Wistar rats. Conditions: 15 min treatment of slices after 48 h culture; compared to sister cultures treated with buffer. The protocol:
(§1) Seven-day-old Wistar rats were decapitated using a guillotine. In less than 1 minute the skull was opened, the cerebral hemispheres were separated and transferred and both hippocampi were dissected and transferred into ice cold buffer containing 137 mM NaCl, 5 mM KCl, 0.85 mM Na2HPO4, 1.5 mM CaCl2, 0.66 mM KH2PO4, 0.28 mM MgSO4, 1 mM MgCl2, 2.7 mM NaHCO3, 1 mM Kynurenic acid and 0.6% D-glucose.
(§2) Transversal hippocampal slices (400 μm) were prepared using a vibrating blade microtome (VT1200S; Leica Microsystems (Schweiz) AG, Heerbrugg, Switzerland) in the same buffer. Hippocampal slices were individually placed on a membrane insert (Millicell Culture Plate Inserts, 0.4 μm) and cultivated at 35° C., 5% CO2, 95% humidity in a medium containing a 1:1 mixture of BME and MEM (both from Invitrogen) containing 25% heat-inactivated horse serum, 1× GlutaMAX, 1× Penicillin/Streptomycin, 0.6% glucose and 1 mM Kynurenic acid (Stoppini, Buchs and Muller (1991), J. Neurosci. Methods, 37(2), 173-82).
(§3) After 48 h in culture, synaptic NMDA receptors were activated by addition of thyme extract or its constituents for 15 min in 140 mM NaCl, 5 mM KCl, 1.3 mM CaCl2, 25 mM HEPES (pH 7.3), 33 mM D-glucose and 0.02 mM bicuculline methiodide. […] An additional positive control comprised the addition of 200 μM glycine to sister cultures. After the treatments, sections were washed and fixed for immunohistochemistry. Markers of enhanced synaptic activity, normally associated with long-term potentiation, representing an ex vivo model of learning and memory were quantitated (see Table 2, below).
(§4) Table 2. […]. The activation of any of these markers (or a combination thereof) is observed in classical LTP experiments.
(§5) Treatment of hippocampal cultures with thyme extracts as well as with both p-cymene and thymol induced biochemical markers typical for LTP (pCREB: activated form of the cAMP response element binding protein; pMAPK: activated form of the mitogen-activated protein kinase; GLUR1: cell surface presence of AMPA receptor 1).

Another assay concerns pMAPK. In words: Hippocampal slice cultures, synaptic marker pMAPK (immunohistochemistry). Format: cell-based, Wistar rats. Particulars: 15 min treatment of slices after 48 h culture; compared to sister cultures treated with buffer. The protocol: as §1, §2, §3, §4, §5
The next assay concerns GluR1. In words: Hippocampal slice cultures, synaptic marker GluR1 (cell surface AMPA receptor 1). Format: cell-based, Wistar rats. Conditions: 15 min treatment of slices after 48 h culture; compared to sister cultures treated with buffer. The protocol: as §1, §2, §3, §4, §5
The subject of assay [2] is NMDA receptor. Particulars: mouse hippocampal slice preparation; Bergeron et al 1998; cited from earlier work.
The test system of assay [3] is NMDA receptor. Conditions: rat hippocampal slice preparation; Bergeron et al 1998; cited from earlier work.
In assay [4] the test system is adult mice. Particulars: systemic administration, Kinney et al 2003; cited from earlier work.
Assay [5] deals with adult mice. Conditions: systemic administration, Kinney et al 2003; cited from earlier work. The source holds these as a separate data set.

Turning to `C=CC(C)(O)CCC=C(C)C` (stereo not shown) [Linalool], the “IC50 for tritiated glycine uptake” value in assay [1] is “inactive”. In addition, the pCREB relative activation entry in the assay on pCREB is listed as “±”. For the same molecule, the pMAPK relative activation result in the assay with pMAPK was “±”. Moreover, the “GluR1 relative activation (symbol)” value in the assay on GluR1 is recorded as “±”.

In the case of `CN(CCC(Oc1ccc(-c2ccccc2)cc1)c1ccc(F)cc1)CC(=O)O` (stereo not shown) [NFPS, N-[3-(4′-fluorophenyl)-3-(4′-phenylphenoxy)]propylsarcosine], the “NMDA receptor responses in CA1 pyramidal cells” value in the assay with NMDA receptor [2] and in the assay with NMDA receptor [3] was “enhanced” throughout. The “LTP in the dentate gyrus” value in the assay on adult mice [4] is on record as “increased”. The “Prepulse inhibition of the acoustic startle response” value with adult mice [5] is recorded as “enhanced”.

With `Cc1ccc(C(C)C)cc1` [P-Cymene], the “IC50 for tritiated glycine uptake” value in assay [1] was “inactive”. Besides, the pCREB relative activation result in the assay with pCREB is “++”. Further, in the assay on pMAPK, the pMAPK relative activation entry is “++++”. For the same molecule, the “GluR1 relative activation (symbol)” value in the assay with GluR1 is “±”.

Consider `CNCC(=O)O` [Sarcosine, reference compound], for which the 50% inhibitory concentration (IC50) in assay [1] was 0.0359 µM.

`Cc1ccc(C(C)C)c(O)c1` [Thymol]: in assay [1], the IC50 is 13.6 µM. Besides, the pCREB relative activation entry with pCREB is given as “++++”. In addition, the GluR1 relative activation with GluR1 is given as 250-767%.

For Caryophyllene, the “IC50 for tritiated glycine uptake” value in assay [1] is “inactive”. In the assay on pCREB, the pCREB relative activation entry is on record as “±”. Also, the pMAPK relative activation entry with pMAPK was “±”.
